Test results taken from paper PMC3388095, “Fluorophore Labeled Kinase Detects Ligands That Bind within the MAPK Insert of p38α Kinase” (PLoS ONE, 2012).

Legend:
Assay in all cases: Kinase selectivity profile, 33P-ATP filter-binding assay
Format in all cases: biochemical
SGK1 = SGK1 (Homo sapiens, UniProt O00141)
Experimental: (§1) Figure 5 Kinase selectivity profile of 1b. Compound 1b was profiled against a selected panel of 95 different kinases at a concentration of 10 µM employing a radioactive (^33P-ATP) filter-binding assay (National Centre for Protein Kinase Profiling, Dundee). The numbers represent the remaining kinase activity in %. […] TEXT PRINTED IN THE PICTURE: no label printed: Aurora B: 53; MNK2: 67; MINK1: 69; HER4: 71; MKK1: 75; PKBβ: 75; PHK: 76; PIM2: 76; PIM3: 77; CHK2: 78; PKD1: 79; TBK1: 79; PAK4: 80; Lck: 80; GSK3β: 80; IGF-1R: 81; p38δ MAPK: 81; PIM1: 82; SRPK1: 83; SmMLCK: 83; MAPKAP-K3: 84; EPH A2: 85; MELK: 85; CK2: 85; CK1: 86; CAMK1: 86; PLK1: 87; MST2: 87; IR-HIS: 87; BTK: 87; HIPK1: 87; p38α MAPK: 88; DYRK2: 88; JNK3: 88; PAK5: 88; IKKε: 89; p38β MAPK: 89; NUAK1: 90; PAK2: 90; MNK1: 91; ERK8: 91; GCK: 91; PRAK: 91; MLK1: 92; SGK1: 92; PAK6: 92; TTK: 92; BRSK2: 92; MARK4: 93; CHK1: 93; RIPK2: 94; CDK2-Cyclin A: 94; JNK1: 94; AMPK: 94; VEG-FR: 95; DYRK1A: 95; CAMKKβ: 95; PKCα: 96; S6K1: 96; MSK1: 96; PKCz: 96; YES1: 96; RSK1: 97; IRAK4: 97; DYRK3: 97; IKKβ: 97; ERK2: 98; MLK3: 98; RSK2: 98; LKB1: 98; MAPKAP-K2: 98; ERK1: 99; FGF-R1: 99; SYK: 99; MST4: 99; MARK3: 99; MARK2: 100; PDK1: 100; JNK2: 101; HIPK2: 101; BRSK1: 102; EF2K: 102; PRK2: 103; Aurora A: 104; IRR: 104; CSK: 104; PKA: 104; NEK6: 105; p38γ MAPK: 105; Src: 107; PKBα: 109; ROCK 2: 109; EPH-B3: 112; HIPK3: 115; NEK2α: 119 DOUBTS OF THE COPYIST ABOUT THIS PICTURE: The picture prints no compound label and no measure or unit for the numbers; only the colour scale 'Inhibition weak/strong' is printed. / PKCz: the last letter may be z or ζ / NEK2α: the last letter may be a or α / IKKε: the last letter may be ε or e

PKD1 = PKD1 (Homo sapiens, UniProt Q15139)
Experimental: as §1

MINK1 = MINK1 (Homo sapiens, UniProt Q8N4C8)
Experimental: as §1

CHK2 = CHK2 (Homo sapiens, UniProt O96017)
Experimental: as §1

CK1 = CK1 (Homo sapiens, UniProt P48730)
Experimental: as §1

MNK2 = MNK2 (Homo sapiens, UniProt Q9HBH9)
Experimental: as §1

PIM2 = PIM2 (Homo sapiens, UniProt Q9P1W9)
Experimental: as §1

CSK = CSK (Homo sapiens, UniProt P41240)
Experimental: as §1

IGF-1R = IGF-1R (Homo sapiens, UniProt P08069)
Experimental: as §1

FGF-R1 = FGF-R1 (Homo sapiens, UniProt P11362)
Experimental: as §1

MAPKAP-K3 = MAPKAP-K3 (Homo sapiens, UniProt Q16644)
Experimental: as §1

PIM1 = PIM1 (Homo sapiens, UniProt P11309)
Experimental: as §1

IRR = IRR (Homo sapiens, UniProt P14616)
Experimental: as §1

PLK1 = PLK1 (Homo sapiens, UniProt P53350)
Experimental: as §1

p38δ MAPK = p38δ MAPK (Homo sapiens, UniProt O15264)
Experimental: as §1

Src = Src (Homo sapiens, UniProt P12931)
Experimental: as §1

MARK2 = MARK2 (Homo sapiens, UniProt Q7KZI7)
Experimental: as §1

PKCα = PKCα (Homo sapiens, UniProt P17252)
Experimental: as §1

EPH-B3 = EPH-B3 (Homo sapiens, UniProt P54753)
Experimental: as §1

CAMKKβ = CAMKKβ (Homo sapiens, UniProt Q96RR4)
Experimental: as §1

PDK1 = PDK1 (Homo sapiens, UniProt O15530)
Experimental: as §1

DYRK2 = DYRK2 (Homo sapiens, UniProt Q92630)
Experimental: as §1

MELK = MELK (Homo sapiens, UniProt Q14680)
Experimental: as §1

HIPK1 = HIPK1 (Homo sapiens, UniProt Q86Z02)
Experimental: as §1

BRSK2 = BRSK2 (Homo sapiens, UniProt Q8IWQ3)
Experimental: as §1

IR-HIS = IR-HIS (Homo sapiens, UniProt P06213)
Experimental: as §1

PKBβ = PKBβ (Homo sapiens, UniProt P31751)
Experimental: as §1

Chain of DYRK2 (Q92630 whole entry): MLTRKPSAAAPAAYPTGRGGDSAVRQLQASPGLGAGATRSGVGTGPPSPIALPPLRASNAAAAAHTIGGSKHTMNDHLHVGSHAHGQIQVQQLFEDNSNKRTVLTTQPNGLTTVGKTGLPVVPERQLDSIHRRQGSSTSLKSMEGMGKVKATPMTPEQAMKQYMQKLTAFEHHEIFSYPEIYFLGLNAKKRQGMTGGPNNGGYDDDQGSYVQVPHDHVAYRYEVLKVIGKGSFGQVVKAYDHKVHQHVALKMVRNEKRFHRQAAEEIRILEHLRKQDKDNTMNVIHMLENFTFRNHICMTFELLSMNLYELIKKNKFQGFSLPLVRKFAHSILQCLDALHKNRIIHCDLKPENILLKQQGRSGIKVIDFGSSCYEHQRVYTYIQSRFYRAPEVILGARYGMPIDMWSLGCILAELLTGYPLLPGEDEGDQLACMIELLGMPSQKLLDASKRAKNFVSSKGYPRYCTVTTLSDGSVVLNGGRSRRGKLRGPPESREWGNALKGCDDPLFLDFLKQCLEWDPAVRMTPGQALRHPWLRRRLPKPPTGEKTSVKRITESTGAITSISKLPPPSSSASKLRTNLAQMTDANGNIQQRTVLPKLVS
Chain of FGF-R1 (P11362 22-822): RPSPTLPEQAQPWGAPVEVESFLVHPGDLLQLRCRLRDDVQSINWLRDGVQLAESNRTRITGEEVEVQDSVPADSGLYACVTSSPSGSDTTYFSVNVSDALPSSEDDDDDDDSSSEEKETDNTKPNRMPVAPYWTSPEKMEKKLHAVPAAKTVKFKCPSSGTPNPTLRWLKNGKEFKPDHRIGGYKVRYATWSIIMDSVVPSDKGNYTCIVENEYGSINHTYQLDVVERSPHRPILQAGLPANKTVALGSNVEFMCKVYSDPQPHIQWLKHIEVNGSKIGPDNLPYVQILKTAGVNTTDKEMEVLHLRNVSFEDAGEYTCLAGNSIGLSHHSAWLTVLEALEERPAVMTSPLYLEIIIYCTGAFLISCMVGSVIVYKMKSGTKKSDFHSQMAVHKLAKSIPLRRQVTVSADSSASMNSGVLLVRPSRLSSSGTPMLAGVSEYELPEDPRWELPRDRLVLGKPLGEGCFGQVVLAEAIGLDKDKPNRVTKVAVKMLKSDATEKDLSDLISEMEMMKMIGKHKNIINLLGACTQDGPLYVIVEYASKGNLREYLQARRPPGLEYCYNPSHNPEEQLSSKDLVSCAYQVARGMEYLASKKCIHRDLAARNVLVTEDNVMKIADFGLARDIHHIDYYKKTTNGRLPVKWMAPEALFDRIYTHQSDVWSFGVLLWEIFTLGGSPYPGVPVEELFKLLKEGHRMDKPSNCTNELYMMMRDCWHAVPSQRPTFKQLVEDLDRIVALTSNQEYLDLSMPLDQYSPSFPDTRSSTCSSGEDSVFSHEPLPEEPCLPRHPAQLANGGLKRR
Chain of Src (P12931 whole entry): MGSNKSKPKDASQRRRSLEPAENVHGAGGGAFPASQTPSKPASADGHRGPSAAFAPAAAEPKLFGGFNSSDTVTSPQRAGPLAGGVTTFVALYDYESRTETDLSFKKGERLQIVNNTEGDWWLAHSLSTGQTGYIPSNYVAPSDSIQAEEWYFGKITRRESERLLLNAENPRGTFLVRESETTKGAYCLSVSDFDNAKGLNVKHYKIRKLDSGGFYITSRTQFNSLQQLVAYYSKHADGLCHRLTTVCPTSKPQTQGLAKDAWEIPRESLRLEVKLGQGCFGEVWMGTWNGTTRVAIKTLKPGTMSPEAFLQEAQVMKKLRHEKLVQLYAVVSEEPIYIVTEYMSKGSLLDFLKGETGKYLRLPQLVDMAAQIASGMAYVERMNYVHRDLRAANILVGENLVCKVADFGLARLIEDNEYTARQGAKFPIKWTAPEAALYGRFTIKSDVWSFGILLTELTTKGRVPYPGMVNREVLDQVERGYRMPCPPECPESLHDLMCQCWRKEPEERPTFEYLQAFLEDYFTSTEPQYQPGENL
Chain of PLK1 (P53350 whole entry): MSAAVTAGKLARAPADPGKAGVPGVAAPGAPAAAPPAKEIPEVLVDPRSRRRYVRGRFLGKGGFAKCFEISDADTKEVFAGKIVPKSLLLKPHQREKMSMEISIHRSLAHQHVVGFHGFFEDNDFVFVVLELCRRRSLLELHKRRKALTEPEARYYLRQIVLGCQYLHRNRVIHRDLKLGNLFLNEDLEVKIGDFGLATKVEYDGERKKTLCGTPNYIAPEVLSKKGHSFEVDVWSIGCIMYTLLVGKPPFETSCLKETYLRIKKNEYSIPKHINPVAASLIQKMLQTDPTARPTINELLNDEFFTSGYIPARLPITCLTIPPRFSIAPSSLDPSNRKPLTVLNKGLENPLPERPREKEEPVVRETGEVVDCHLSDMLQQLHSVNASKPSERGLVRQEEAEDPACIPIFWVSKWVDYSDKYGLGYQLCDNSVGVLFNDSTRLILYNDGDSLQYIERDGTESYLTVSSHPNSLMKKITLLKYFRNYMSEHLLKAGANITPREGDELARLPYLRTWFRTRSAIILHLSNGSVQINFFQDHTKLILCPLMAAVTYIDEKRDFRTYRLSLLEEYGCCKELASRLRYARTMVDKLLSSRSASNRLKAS
Chain of PKD1 (Q15139 whole entry): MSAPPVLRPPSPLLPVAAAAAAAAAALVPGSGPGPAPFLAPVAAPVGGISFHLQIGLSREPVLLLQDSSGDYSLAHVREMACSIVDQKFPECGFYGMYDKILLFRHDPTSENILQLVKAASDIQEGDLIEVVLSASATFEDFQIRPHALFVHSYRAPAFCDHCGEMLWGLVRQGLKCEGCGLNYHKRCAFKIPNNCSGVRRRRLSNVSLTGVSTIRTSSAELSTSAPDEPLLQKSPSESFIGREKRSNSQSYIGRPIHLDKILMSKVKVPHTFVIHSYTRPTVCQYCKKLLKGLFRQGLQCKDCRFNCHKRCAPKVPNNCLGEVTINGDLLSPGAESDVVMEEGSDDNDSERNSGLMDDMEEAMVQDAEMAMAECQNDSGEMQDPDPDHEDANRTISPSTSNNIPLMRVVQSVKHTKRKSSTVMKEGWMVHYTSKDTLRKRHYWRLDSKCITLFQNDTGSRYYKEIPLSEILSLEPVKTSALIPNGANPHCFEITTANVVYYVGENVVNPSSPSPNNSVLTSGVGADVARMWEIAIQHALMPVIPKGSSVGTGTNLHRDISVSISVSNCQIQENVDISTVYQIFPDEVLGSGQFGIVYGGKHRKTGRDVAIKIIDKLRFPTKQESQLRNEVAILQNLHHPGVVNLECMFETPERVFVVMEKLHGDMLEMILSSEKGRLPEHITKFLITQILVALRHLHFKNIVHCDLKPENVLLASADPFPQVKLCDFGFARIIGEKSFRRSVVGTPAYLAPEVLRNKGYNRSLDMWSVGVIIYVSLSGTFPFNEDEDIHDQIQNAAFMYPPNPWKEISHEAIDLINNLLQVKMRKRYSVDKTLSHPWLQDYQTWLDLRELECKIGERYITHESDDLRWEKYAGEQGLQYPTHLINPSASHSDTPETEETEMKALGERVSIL
Chain of EPH-B3 (P54753 34-998): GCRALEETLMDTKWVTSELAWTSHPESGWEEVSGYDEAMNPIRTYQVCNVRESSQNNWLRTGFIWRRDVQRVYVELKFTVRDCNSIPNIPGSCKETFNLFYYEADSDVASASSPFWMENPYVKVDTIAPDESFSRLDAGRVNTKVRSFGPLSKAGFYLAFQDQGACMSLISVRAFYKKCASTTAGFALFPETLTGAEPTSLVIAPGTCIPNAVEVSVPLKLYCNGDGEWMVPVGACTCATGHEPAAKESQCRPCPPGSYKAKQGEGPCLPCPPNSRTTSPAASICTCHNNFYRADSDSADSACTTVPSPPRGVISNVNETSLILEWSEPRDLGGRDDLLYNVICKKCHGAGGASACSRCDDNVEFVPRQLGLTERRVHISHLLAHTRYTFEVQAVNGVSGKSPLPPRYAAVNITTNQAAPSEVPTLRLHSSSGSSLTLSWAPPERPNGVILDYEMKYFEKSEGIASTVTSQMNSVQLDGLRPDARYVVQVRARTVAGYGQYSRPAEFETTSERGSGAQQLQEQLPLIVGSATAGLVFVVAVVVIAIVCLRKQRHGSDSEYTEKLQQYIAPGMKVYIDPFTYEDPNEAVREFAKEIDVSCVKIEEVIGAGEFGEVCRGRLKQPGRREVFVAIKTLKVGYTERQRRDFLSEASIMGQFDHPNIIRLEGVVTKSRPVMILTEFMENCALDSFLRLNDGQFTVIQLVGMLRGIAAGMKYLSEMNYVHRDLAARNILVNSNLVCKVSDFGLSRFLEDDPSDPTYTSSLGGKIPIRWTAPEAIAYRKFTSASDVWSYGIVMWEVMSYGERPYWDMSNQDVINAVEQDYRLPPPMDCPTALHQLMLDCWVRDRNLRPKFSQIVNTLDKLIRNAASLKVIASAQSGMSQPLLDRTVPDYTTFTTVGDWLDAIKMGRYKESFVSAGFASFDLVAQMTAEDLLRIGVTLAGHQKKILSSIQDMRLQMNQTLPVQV
Chain of PDK1 (O15530 whole entry): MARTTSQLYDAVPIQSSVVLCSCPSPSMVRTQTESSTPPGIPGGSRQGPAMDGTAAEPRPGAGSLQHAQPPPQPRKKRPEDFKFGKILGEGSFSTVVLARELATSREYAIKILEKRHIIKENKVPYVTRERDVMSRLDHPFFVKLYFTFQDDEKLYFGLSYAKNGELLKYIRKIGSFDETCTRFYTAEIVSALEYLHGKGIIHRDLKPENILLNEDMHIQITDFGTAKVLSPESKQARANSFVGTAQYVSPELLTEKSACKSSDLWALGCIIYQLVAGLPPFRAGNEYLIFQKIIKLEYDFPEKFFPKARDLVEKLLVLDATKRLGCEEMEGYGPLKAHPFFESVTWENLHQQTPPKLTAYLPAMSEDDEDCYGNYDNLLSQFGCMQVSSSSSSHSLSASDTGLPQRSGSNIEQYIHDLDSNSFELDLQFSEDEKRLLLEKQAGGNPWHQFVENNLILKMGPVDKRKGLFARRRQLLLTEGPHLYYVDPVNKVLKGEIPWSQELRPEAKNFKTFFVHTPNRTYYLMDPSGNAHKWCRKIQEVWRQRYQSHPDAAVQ

Nc1ccc2c(NC3CC3)nc(-c3ccccc3)nc2c1 [1b, N^4-Cyclopropyl-2-phenyl-4,7-quinazolinediamine] was tested, and the remaining activity at 10 µM (SGK1) was 92%, the remaining activity at 10 µM (PKD1) was 79% and the remaining activity at 10 µM (MINK1) was 69%. For the same compound, the remaining activity at 10 µM (CHK2) was 78%, the remaining activity at 10 µM (CK1) was 86% and the remaining activity at 10 µM (MNK2) was 67%. It also gave a remaining activity at 10 µM (PIM2) of 76%, a remaining activity at 10 µM (CSK) of 104% and a remaining activity at 10 µM (IGF-1R) of 81%. For the same compound, the remaining activity at 10 µM (FGF-R1) was 99%, the remaining activity at 10 µM (MAPKAP-K3) was 84% and the remaining activity at 10 µM (PIM1) was 82%. For the same compound, the remaining activity at 10 µM (IRR) was 104%, the remaining activity at 10 µM (PLK1) was 87% and the remaining activity at 10 µM (p38δ MAPK) was 81%. It also gave a remaining activity at 10 µM (Src) of 107%, a remaining activity at 10 µM (MARK2) of 100% and a remaining activity at 10 µM (PKCα) of 96%. The remaining activity at 10 µM (EPH-B3) was 112%, the remaining activity at 10 µM (CAMKKβ) was 95% and the remaining activity at 10 µM (PDK1) was 100%. For the same compound, the remaining activity at 10 µM (DYRK2) was 88%, the remaining activity at 10 µM (MELK) was 85% and the remaining activity at 10 µM (HIPK1) was 87%. The remaining activity at 10 µM (BRSK2) was 92%, the remaining activity at 10 µM (IR-HIS) was 87% and the remaining activity at 10 µM (PKBβ) was 75%.
